Laboratory results from paper PMC4506092, “Utilizing Chemical Genomics to Identify Cytochrome b as a Novel Drug Target for Chagas Disease” (PLoS Pathogens, 2015).
Several values for one entry are separate records, joined by “and”; a condition that tells them apart may be missing. Identical values can stand only once. Like-named read-outs stand apart in the source and are kept apart here.

Legend:
[1] = test system: L. donovani axenic amastigotes; assay: Leishmania donovani axenic amastigote in vitro efficacy assay; assay type: cell-based; conditions: 48 hours
Procedure: Leishmania donovani (L. donovani) axenic amastigotes (strain MHOM/SD/62/1S-CL2D) were maintained at 37°C / 5% CO2 in RPMI-1640 medium containing 4 mM L-glutamine, 20% heat inactivated FBS, 100 IU penicillin / 100 μg streptomycin per mL, 23 μM folic acid, 100 µM adenosine, 22 mM D-glucose, and 25 mM 2-(N-morpholino)ethanesulfonic acid (pH 5.5 adjusted at 37°C using 1M HCl).
For compound screening, axenic amastigotes were seeded into 384-well plates containing axenic amastigote medium with pre-dispensed compounds (0.25% final DMSO concentration) at a density of 9,600 cells / well. Plates were incubated for 48 hours at 37°C / 5% CO2. Cell viability was assessed using the CellTiter-Glo Luminescent Cell Viability Assay (Promega).

[2] = test system: S. cerevisiae strain NF7061; assay: S. cerevisiae susceptibility assay, YPG (glycerol) medium; assay type: cell-based, Saccharomyces cerevisiae; conditions: 48 hours
Procedure: The minimal inhibitory concentrations (MIC) of the compounds for inhibition of S. cerevisiae drug pump knock-out strain NF7061 (MATa his3Δ 1; leu2Δ 0; met15Δ 0; ura3Δ 0; snq2::KanMX; pdr5::KanMX; pdr1::NAT1; pdr3::KanMX; yap1::NAT1; pdr2::LEU2; yrm1::MET; yor1::LYS2) were determined by a modification of the microdilution technique described elsewhere. Briefly, two-fold dilutions of the compound solution in DMSO were made. They were added to each well of 96-well assay plate containing 200 μL per well of either YPD (1% Difco Yeast Extract, 2% Difco Bacto Peptone and 2% Dextrose) or YPG (3% of glycerol in replacement of 2% Dextrose in YP) medium. Early stationary yeast NF7061 cells grown in either medium were collected and resuspended to 2 × 10^5 cells / mL. Ten microliters of the yeast cell suspension were inoculated to each well of the plates containing medium and compound to achieve a final inoculum of approximately 10^4 CFU / mL. The plates were incubated at 30°C for 24 hours (containing YPD) or 48 hours (containing YPG).

T. b. brucei procyclics = assay: T. b. brucei procyclic form in vitro efficacy assay; assay type: cell-based, Trypanosoma brucei brucei; conditions: 72 hours
Procedure: For conversion from the bloodstream form to the procyclic form, bloodstream form parasites were transferred from HMI-9 medium to Differentiating Trypanosome Medium (DTM, pH = 7.2), consisting of: 6.8 g / L NaCl, 400 mg / L KCl, 200 mg / L CaCl2, 140 mg / L NaH2PO4.H2O, 200 mg / L MgSO4.7H2O, 7.94 g / L HEPES, 2.2 g / L NaHCO3, 110 mg / L sodium pyruvate, 10 mg / L phenol red, 14 mg / L hypoxanthine, 1 mg / L biotin, 760 mg / L glycerol, 640 mg / L proline, 236 mg / L glutamic acid, 1.34 g / L glutamine, 7.5 mg / L hemin (in 50 mM sodium hydroxide), 1X MEM amino acid solution (Invitrogen),1X MEM non-essential amino acids solution (Invitrogen), 28.2 mg / L bathocuproine disulfonate.Na2, 182 mg/L cysteine, 0.2 mM 2-mercaptoethanol, 15% heat-inactivated FBS, and 5 mM sodium citrate and cis-aconitate. Following medium exchange, parasites were incubated at a lower temperature (27°C / 5% CO2), monitored for change in morphology to procyclic parasites, and sub-cultured for long-term cultivation.
For compound screening, 20 μliters (5,000 parasites) of T. b. brucei procyclic culture were added to 384-well plate wells filled with 20 μliters of DTM medium and pre-dispensed compounds (0.25% final DMSO concentration). Plates were then incubated for 72 hours at 27°C / 5% CO2. Cell viability was assessed using the CellTiter-Glo Luminescent Cell Viability Assay (Promega).

[3] = test system: L. donovani promastigotes; assay: Leishmania donovani promastigote proliferation assay; assay type: cell-based
[4] = test system: P. falciparum yDHODH-D10attB; assay: P. falciparum SYBR Green proliferation assay, yDHODH-D10attB line; assay type: cell-based, Plasmodium falciparum
Procedure: (§1) GNF7686 and cytochrome b inhibitors were assayed for activity on two Plasmodium falciparum (P. falciparum) lines: D10attB and yDHODH-D10attB. The D10attB line is reliant on the coenzyme Q-dependent malarial dihydroorotate dehydrogenase (PfDHODH), whereas the yDHODH-D10attB line expresses also the fumarate-utilizing Saccharomyces cerevisiae (S. cerevisiae) DHODH, which circumvents reliance on PfDHODH and renders this line fully resistant to cytochrome b inhibitors. The use of these two lines allows for distinction of selection of potent cytochrome b inhibitors as described in detail in the Results section. Growth and viability of P. falciparum cell lines (in the presence or absence of drug) in infected erythrocytes were assessed using a SYBR Green-based proliferation assay exactly as described previously.

[5] = test system: T. cruzi epimastigotes (GNF7686-resistant, DR); assay: T. cruzi epimastigote growth assay (CellTiter-Glo), GNF7686-resistant; assay type: cell-based, Trypanosoma cruzi
Procedure: To determine compound activity on the T. cruzi epimastigote form, epimastigotes (20 μL; 2.5 × 10^5 parasites / mL) were added to 384-well assay plates containing 20 μL of LIT media with pre-dispensed compounds (0.2% DMSO final concentration) and incubated for seven days at 26°C / 0% CO2. Parasite viability was assessed at the end of this incubation period using the CellTiter-Glo Luminescent Cell Viability Assay (Promega). Luminescence as a measure of parasite viability was measured on the EnVision plate reader.
Resistant epimastigotes were cloned by the limiting dilution technique.

NIH/3T3 fibroblast cells = assay: Mammalian cell cytotoxicity assay (CellTiter-Glo); assay type: cell-based, mouse; conditions: for Toxicity on the host 3T3 cells (in words): host cells of the intracellular amastigote assay, prevented determination of amastigote EC50
Procedure: NIH/3T3 fibroblast cells were maintained in RPMI-1640 medium supplemented with 10% heat-inactivated FBS and 100 IU penicillin / 100 μg streptomycin per mL at 37°C / 5% CO2. For compound screening, cells were diluted to 4 × 10^4 cells / mL in assay medium (RPMI-1640, 5% FBS, and 100 IU penicillin / 100 μg streptomycin per mL) and seeded at 50 μL / well into 384-well plates. Following overnight incubation, compounds were added to each well (0.2% DMSO final concentration) and plates were further incubated for 96 hours. Cell viability was assessed using the CellTiter-Glo Luminescent Cell Viability Assay (Promega). Measured luminescence values were normalized to the value obtained for 0.2% DMSO, and plotted against the corresponding compound concentration for half maximal cytotoxic concentration (CC50) value determination.

P. falciparum D10attB = assay: P. falciparum SYBR Green proliferation assay, D10attB line; assay type: cell-based, Plasmodium falciparum
Procedure: as §1

[6] = Saccharomyces cerevisiae, NF7061, MIC visual growth inhibition screen
[7] = Trypanosoma cruzi, 168 h, GNF7686-resistant T. cruzi culture, seven days, read-out: Epimastigote EC50, DR
[8] = Plasmodium falciparum; read-out: P. falciparum EC50, yDHODH-D10attB
[9] = Plasmodium falciparum; read-out: P. falciparum EC50, D10attB

Compound	EC50 ([1]; Leishmania donovani)	EC50 [2, 6]	EC50 (T. b. brucei procyclics; Trypanosoma brucei)	EC50 ([3]; Leishmania donovani)	EC50 ([4]; Plasmodium falciparum, read-out: P. falciparum EC50, yDHODH-D10attB)	Shift of epimastigote EC50, GNF7686-resistant vs wild-type [5]	EC50 [5, 7]	Toxicity on the host 3T3 cells (in words) (NIH/3T3 fibroblast cells)	EC50 (P. falciparum D10attB; Plasmodium falciparum, read-out: P. falciparum EC50, D10attB)	EC50 [4, 8]	EC50 (P. falciparum D10attB; [9])	EC50 ([5]; Trypanosoma cruzi, epimastigote clones, read-out: EC50 of three clones isolated from the GNF7686-resistant culture)	Mammalian cell proliferation: no effect observed up to (NIH/3T3 fibroblast cells; mouse)	EC50 [1]	EC50 ([2]; MIC visual growth inhibition screen)	EC50 (T. b. brucei procyclics)	EC50 [3]	EC50 ([4]; read-out: P. falciparum EC50, yDHODH-D10attB)	EC50 ([5]; GNF7686-resistant T. cruzi culture, seven days, read-out: Epimastigote EC50, DR)	EC50 (P. falciparum D10attB; read-out: P. falciparum EC50, D10attB)
CCCCCC[C@H]1C(=O)O[C@H](C)[C@H](NC(=O)c2cccc(NC=O)c2O)C(=O)O[C@@H](C)[C@@H]1OC(=O)CC(C)C [Antimycin A]	0.01 ± 0.004 µM	< 2 nM	30 ± 2 nM	0.01 ± 0.003 µM	> 12.5 µM	40 fold	1800 ± 210 nM	toxicity	700 ± 340 nM											
O=C(Cn1ccnc1[N+](=O)[O-])NCc1ccccc1 [Benznidazole]	> 25 µM	> 40000 nM	> 25000 nM	> 25 µM			6700 ± 600 nM			> 12.5 µM	> 12500 nM									
CCc1c(C)c(C#N)c2nc3ccccc3n2c1O [GNF7686]	0.46 ± 0.28 µM	5000 nM	590 ± 90 nM	0.46 ± 0.12 µM		~ 5 fold and ~ 4 fold	730 ± 40 nM			> 12.5 µM	> 12500 nM	~1000 nM	> 25 µM							
CO/C(=C/C(N)=O)[C@H](C)[C@H](/C=C/c1csc(-c2csc([C@@H](C)/C=C/C=C/C(C)C)n2)n1)OC [Myxothiazol]								toxicity						9.6 ± 3.9 µM	70 ± 10 nM	2500 ± 220 nM	3.1 ± 0.45 µM	8.4 ± 1.6 µM	430 ± 80 nM	300 ± 10 nM
CO\C=C(C(=O)OC)/C(C)=C\C=C\c1ccccc1 [Strobilurin]	9.1 ± 2.5 µM	100 ± 20 nM	3200 ± 330 nM	4.3 ± 0.82 µM			340 ± 10 nM	toxicity		> 12.5 µM	460 ± 270 nM									
